From paper PMC8140105 (Scientific Reports, 2021)
Entries after “also recorded” stand apart in the source; their conditions may differ. Values belong to the substance of their own block, whether it stands above or below them. No end group written: not given here.

Legend:
[1] = test system: BV-2 microglia cells; test: IL-6 and TNFα determination (ELISA); assay type: cell-based, murine; conditions: BV-2 cells, 10 µM; for microglial activating properties of metabolites (IL-6 production): n = 12
Description: BV-2 cells were a kind gift from Prof. Alba Minelli and were grown in RPMI medium supplemented with 10% fetal bovine serum (FBS) and 1% penicillin-streptromycin solution (Life Technologies, Belgium). The cells were cultured in culture flasks (Greiner, Belgium) in an incubator set at 37 °C and 5% CO2. When confluent, cells were detached using a cell scraper and diluted 1:20 approximately every 4 days. Experiments were performed in serum-free DMEM without phenol red.
To investigate the microglia activating properties of the peptide, IL-6 and TNFα levels were determined in cell-free supernatants of BV-2 microglia cells after treatment. BV-2 cells (2 × 10^5 cells/well) were seeded in 24-well plates and treated with peptide for 20 h. ELISA was performed according to the supplier’s protocol (eBioscience, Vienna, Austria). Briefly, after incubation with biotinylated detection antibody, avidin-HRP conjugate and subsequently chromogenic tetramethylbenzidine (TMB) substrate were added. Absorbance was measured at 450 nm and 570 nm using the Multiskan Ascent 354 microplate reader (Thermofisher, Waltham, USA). Concentrations were determined using the standard curve generated using known concentrations of TNFα and IL-6.

[2] = Multiple time regression (MTR) analysis, blood-to-brain influx; assay type: in vivo, ICR-CD-1 mice; conditions: 125I-labelled, mice, linear model, mean ± standard error
Description: Briefly, 0.1 µmol of the lyophilized peptide was dissolved in 100 µL of phosphate buffer (pH 7.4, 25 mM). A Iodo-Gen coated tube (Thermo Scientific, Merelbeke, Belgium) was first of all rinsed with 1 mL of phosphate buffer. Subsequently, 50 µL of sodium iodide solution (1.1 µmol/mL) and 1 mCi of Na^125I solution (Perking Elmer, Zaventem, Belgium) were transferred into this Iodo-Gen coated tube. The oxidation reaction was allowed to proceed for six minutes at room temperature, after which the iodonium solution was transferred to 50 µL of peptide solution (1 mM). The iodination reaction of the peptide was allowed to proceed for another six minutes at room temperature. Finally, the iodinated peptide was purified using a silver filter (Thermo Scientific, Merelbeke, Belgium).
In order to determine whether the peptide could enter the brain, in vivo multiple time regression (MTR) analysis was performed. ICR-CD-1 mice were anesthetized intraperitoneally using a 40% urethane solution (3 g/kg). […] At specified time points after injection (i.e. 1, 3, 5, 10, 12.5 and 15 min, with start and end in duplicate), blood was obtained from the carotid artery followed by decapitation of the mouse. The isolated brain was weighed and radioactivity measured in a gamma counter for 5 min (Wallac Wizard automatic gamma counter, Perkin Elmer, Shelton, CT, USA), as well as from 50 µL serum, which was obtained by centrifuging the collected blood at 10,000g for 15 min at 21 °C. The linear and biphasic modeling of the multiple time regression analysis was performed as previously described.

[3] = faeces homogenate; conditions: ICR-CD-1 mice, 37 °C, up to 60 min
[4] = kidney homogenate; conditions: ICR-CD-1 mice, 37 °C, up to 60 min
[5] = serum; conditions: 37 °C, up to 60 min
[6] = liver homogenate; conditions: ICR-CD-1 mice, 37 °C, up to 60 min
[7] = brain homogenate; conditions: ICR-CD-1 mice, 37 °C, up to 60 min

Substance: DLPFEH [main metabolite of PapRIV formed in all matrices]
microglial activating properties of metabolites (IL-6 production) [1]: to the same extent as the native sequence

Substance: DEHSFLP [DEHSFLP]
activating properties (IL-6 and TNFα production) ([1]; scrambled control): no activating properties

Substance: Dermorphin [reference compound]
Kin ([2]; i.v. (jugular vein), 1–15 min): 0.35 ± 0.05 µL/g/min
Vascular brain distribution volume, V0 ([2]; i.v.): 15.93 ± 0.64 µL/g

cleaved bond [3]: S1-D2, major
cleaved bond [4]: D2-L3; also recorded: S1-D2, major
cleaved bond [6]: S1-D2, major; also recorded: D2-L3
cleaved bond [7]: S1-D2, major and D2-L
Substance: SDLPFEH
cleaved bond [5]: S1-D2, major; also recorded: D2-L3; also recorded: F5-E6; also recorded: E6-H7

Substance: SDLPF [metabolite of PapRIV formed in serum]
microglial activating properties of metabolites (IL-6 production) [1]: no activating properties

Substance: DLPF [metabolite of PapRIV formed in serum]
microglial activating properties of metabolites (IL-6 production) [1]: no activating properties
